Experimental data as given in patent US12636250B2, “Microneedle array patches (MAPs), systems, and methods for manufacturing and using same” (Terrestrial Bio, Inc., priority 2024, dated 2026).
“Also recorded” adds a separate entry of the source.

Assays:
[1] = Mold dissection for tip length and shell length (RTM-209); format: physicochemical; conditions: comparison between GLP-1 tip formulations
Protocol: Mold Dissection for Tip Length (RTM-209): The mold dissection method uses magnified images of sectioned molds to obtain measurements and morphology of the dried tips in the molds. After tip printing and drying, a mold is cross-sectioned with a razor blade in between rows of needles. The dried tips are imaged within the needle cavities using a microscope. The tip overall length and shell length are measured by image processing. The image scale is calibrated using a stage micrometer, and lengths in micrometers are calculated from the lengths measured in pixels. The shell length as a portion of overall length is an indication of consolidation. Minimal shell length, corresponding to maximum consolidation, is preferred.

[2] = Microneedle mechanical strength, Instron compression (crush) test (TM-404); format: physicochemical; conditions: for Tip strength (comparison in words): comparison between GLP-1 tip formulations

| strength per needle ([2]; GLP-086, higher (3%) concentration of Proline vs feasibility (control) formulation) [N/needle] | SMILES | Tip length / shell length / Tip consolidation (comparison in words) [1] | Tip strength (comparison in words) [2] |
| --- | --- | --- | --- |
| – | [Cl-].[Na+] [NaCl] | led to better consolidation of the Tips; also recorded: significantly reduced the shell length and improved the % consolidation of the Tip | comparable |
| – | Cl.NC(CO)(CO)CO [Tris-HCl] | comparable to MOPS in terms of Tip length and strength | comparable to MOPS in terms of Tip length and strength |
| > 0.6 | O=C(O)[C@@H]1CCCN1 [Proline] | did improve Tip consolidation | significantly improves the mechanical strength of GLP-1 containing needles |
| – | [Cl-].[Cl-].[Mg+2] [MgCl2] | also improved Tip consolidation | – |
